Broadly, the IC50 is the concentration that inhibits the measured activity by half. Low readings indicate inhibition by little substance, high ones a need for much substance. Usually EC50 stands for the concentration giving half of the maximal effect.

The values below come from US9745305B2, “Modulators of methyl modifying enzymes, compositions and uses thereof” (Constellation Pharmaceuticals, Inc., priority 2013, dated 2017).

For one test, the target named is EZH2 (Homo sapiens, UniProt Q15910). In words: EZH2 Assay (3H SAM methyl transfer, rPRC2, FlashPlate). Type of test: biochemical. The note with it: rPRC2, biotinylated oligonucleosomes, 0.2 μM 3H SAM, 2 nM EZH2. The protocol: (§1) EZH2 Assay: Assays were carried out by mixing rPRC2 together with biotinylated oligonucleosome substrates in the presence of the radio-labeled enzyme co-factor, S-adenosyl-L-methionine (^3H SAM) (Perkin Elmer) and monitoring the enzymatically mediated transfer of tritiated methyl groups from ^3H SAM to histone lysine residues. The amount of resulting tritiated methyl histone product was measured by first capturing the biotinylated oligonucleosomes in streptavidin (SAV) coated FlashPlates (Perkin Elmer), followed by a wash step to remove unreacted ^3H SAM, and then counting on a TopCount NXT 384 well plate scintillation counter (Perkin Elmer). The final assay conditions for EZH2 were as follows: 50 mM Tris Buffer pH 8.5, 1 mM DTT, 69 μM Brij-35 detergent, 5.0 mM MgCl2, 0.1 mg/mL BSA, 0.2 μM ^3H SAM, 0.2 μM biotinylated oligonucleosomes, 3.6 μM H3K27me3 peptide and 2 nM EZH2.
Chain of EZH2 (Q15910 whole entry): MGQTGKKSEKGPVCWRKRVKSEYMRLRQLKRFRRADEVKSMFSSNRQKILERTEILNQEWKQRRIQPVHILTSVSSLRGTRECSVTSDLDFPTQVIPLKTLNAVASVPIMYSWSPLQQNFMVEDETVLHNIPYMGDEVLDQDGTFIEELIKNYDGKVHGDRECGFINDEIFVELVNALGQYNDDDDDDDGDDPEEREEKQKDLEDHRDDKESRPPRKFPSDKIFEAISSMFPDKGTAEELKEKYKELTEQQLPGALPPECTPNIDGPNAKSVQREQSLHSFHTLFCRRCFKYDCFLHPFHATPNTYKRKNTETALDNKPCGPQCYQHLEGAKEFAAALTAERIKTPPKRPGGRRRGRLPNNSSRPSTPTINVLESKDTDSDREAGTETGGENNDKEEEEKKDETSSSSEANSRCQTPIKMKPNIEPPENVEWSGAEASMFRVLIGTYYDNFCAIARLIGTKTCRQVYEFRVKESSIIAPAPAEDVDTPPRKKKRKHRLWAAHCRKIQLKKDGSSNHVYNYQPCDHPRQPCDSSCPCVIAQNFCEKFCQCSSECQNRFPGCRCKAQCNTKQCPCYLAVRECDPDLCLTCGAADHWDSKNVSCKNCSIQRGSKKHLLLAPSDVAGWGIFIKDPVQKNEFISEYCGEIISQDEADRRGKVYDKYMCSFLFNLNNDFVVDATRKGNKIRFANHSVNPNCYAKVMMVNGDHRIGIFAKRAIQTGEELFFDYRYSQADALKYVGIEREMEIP
Chain of EZH2 (O75530 whole entry partner): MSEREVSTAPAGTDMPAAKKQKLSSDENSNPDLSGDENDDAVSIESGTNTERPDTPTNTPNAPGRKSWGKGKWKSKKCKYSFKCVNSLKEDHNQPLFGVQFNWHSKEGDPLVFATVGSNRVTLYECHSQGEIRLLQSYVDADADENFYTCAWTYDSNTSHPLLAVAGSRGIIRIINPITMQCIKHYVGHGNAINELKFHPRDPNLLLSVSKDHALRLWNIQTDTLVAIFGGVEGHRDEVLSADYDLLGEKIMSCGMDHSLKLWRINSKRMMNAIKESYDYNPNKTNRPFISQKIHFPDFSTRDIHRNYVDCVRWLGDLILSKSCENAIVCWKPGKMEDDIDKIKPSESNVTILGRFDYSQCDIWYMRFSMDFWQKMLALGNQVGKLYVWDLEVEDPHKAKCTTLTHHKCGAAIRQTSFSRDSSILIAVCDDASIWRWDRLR
Chain of EZH2 (Q15022 whole entry partner): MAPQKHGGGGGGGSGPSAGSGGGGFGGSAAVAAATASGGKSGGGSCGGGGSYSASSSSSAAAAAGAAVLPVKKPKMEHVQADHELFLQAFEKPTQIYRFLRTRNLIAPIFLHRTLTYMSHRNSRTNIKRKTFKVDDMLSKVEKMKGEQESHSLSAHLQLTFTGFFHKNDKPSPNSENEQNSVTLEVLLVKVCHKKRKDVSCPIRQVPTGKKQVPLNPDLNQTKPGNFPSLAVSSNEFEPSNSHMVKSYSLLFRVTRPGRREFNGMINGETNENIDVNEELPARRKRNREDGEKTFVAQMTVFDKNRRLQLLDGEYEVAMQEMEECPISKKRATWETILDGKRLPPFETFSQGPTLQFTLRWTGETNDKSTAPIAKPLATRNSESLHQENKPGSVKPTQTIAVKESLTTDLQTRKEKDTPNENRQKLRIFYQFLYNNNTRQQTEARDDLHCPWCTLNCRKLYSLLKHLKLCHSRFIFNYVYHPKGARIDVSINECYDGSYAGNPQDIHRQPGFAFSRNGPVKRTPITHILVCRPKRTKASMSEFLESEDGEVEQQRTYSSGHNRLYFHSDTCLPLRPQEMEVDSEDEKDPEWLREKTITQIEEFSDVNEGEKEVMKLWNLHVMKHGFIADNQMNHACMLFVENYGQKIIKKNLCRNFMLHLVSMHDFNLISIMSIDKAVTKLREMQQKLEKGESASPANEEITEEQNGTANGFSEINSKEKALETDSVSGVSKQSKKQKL
(§2) Compound IC50 measurements were obtained as follows: Compounds were first dissolved in 100% DMSO as 10 mM stock solutions. Ten point dose response curves were generated by dispensing varying amounts of the 10 mM compound solution in 10 wells of the 384 well plate (Echo; Labcyte), pure DMSO was then used to backfill the wells to insure all wells have the same amount of DMSO. A 12.5 μL volume of the HMT enzyme, H3K27me3 peptide and oligonucleosome substrate in assay buffer was added to each well of the assay plate using a Multidrop Combi (ThermoFisher). Compounds were pre-incubated with the enzyme for 20 min, followed by initiation of the methyltransferase reaction by addition of 12.5 μL of ^3H SAM in assay buffer (final volume=25 μL). The final concentrations of compounds ranged from a top default concentration of 80 μM down to 0.16 μM in ten 2-fold dilution steps. Reactions were carried out for 60 minutes and quenched with 20 μL per well of 1.96 mM SAH, 50 mM Tris pH 8.5, 200 mM EDTA. Stopped reactions were transferred to SAV coated Flashplates (Perkin Elmer), incubated for 120 min, washed with a plate washer, and then read on the TopCount NXT (1.0 min/well) to measure the amount of methyl histone product formed during the reaction. The amount of methyl histone product was compared with the amount of product formed in the 0% and 100% inhibition control wells allowing the calculation of % Inhibition in the presence of the individual compounds at various concentrations. IC50's were computed using a 4 parameter fit non-linear curve fitting software package (XLFIT, part of the database package, ActivityBase (IDBS)) where the four parameters were IC50, Hill slope, pre-transitional baseline (0% INH), and post-transitional baseline (100% INH); with the latter two parameters being fixed to zero and 100%, respectively, by default.

In test [1] the test system is H3K27me3 mark in Hela cells expressing wild type EZH2. In words: H3K27me3 Alpha Hela Assay (AlphaLISA). The test is classed as cell-based. The note with it: Homo sapiens, 72 hrs, read-out: H3K27me3_Alpha_HeLa (EC50). As to the method: H3K27me3 Alpha Hela Assay (AlphaLISA). Ten different doses of each test compound (in a series of 3-fold dilutions) were plated in duplicate 384-well tissue culture treated plates (Catalog #781080; Greiner Bio One; Monroe, N.C.). Hela cells grown in culture were trypsinized and counted using a Countess® cell counter (Catalog # C10281; Life Technologies, Grand Island, N.Y.). Cell were diluted to 67,000 cells per mL in 10% DMEM (Catalog #10569-010 Life Technologies, Grand Island, N.Y.) and 15 μL (1,000 cells) were plated into each well using the Biotek MicroFlo™ Select Dispenser (BioTek Instruments, Inc. Vermont, USA),) of the 384-well plate. Plates were incubated at 37° C./5% CO2 for 72 hrs. One of the duplicate plates was processed for HeLa assay and the other for viability.
To the plate processed for AlphaLISA was added 5 μL per well Cell-Histone Lysis buffer (1×) (Catalog # AL009F1 Perkin Elmer; Waltham, Mass.) and the plate was incubated at RT for 30 minutes on a plate shaker with low speed (Model#4625-Q Thermo Scientific; Waltham, Mass.). Then, 10 μL per well Histone Extraction buffer (catalog # AL009F2; Perkin Elmer; Waltham, Mass.) was added and the plate further incubated at RT for 20 min on plate shaker with low speed. To each well was then added 10 μL per well of a 5× mix of anti-K27me3 acceptor beads plus Biotinylated anti-Histone H3 (C-ter) Antibody (diluted to 3 nM final) (Catalog #AL118 Perkin Elmer; Waltham, Mass.). Dilution of the acceptor beads and then anti-Histone H3 was with 1× Histone Detection buffer (Catalog # AL009F3 Perkin Elmer; Waltham, Mass.) which was produced diluted from the 10× stock provided. The plate was sealed with an aluminum plate sealer and incubated at 23° C. for 60 min. We then added 10 μL 5× solution of Streptavidin Donor beads (Catalog #6760002 Perkin Elmer; Waltham, Mass.) (20 μg/mL final in 1× Histone Detection Buffer), sealed the plate with Aluminum plate sealer and incubated at 23° C. for 30 min. The plates were then read using an EnVision-Alpha Reader (model #2104 Perkin Elmer; Waltham, Mass.).
Data from both assays was analyzed using Assay Assistant (Constellation Pharmaceuticals In-house product) and Activity Base (IDBS Ltd, Surrey, UK) template. Data files were imported to Assay Assistant and assay conditions were specified. A unique Analysis ID was created and the data files exported to Activity Base. An analysis template was created on Activity Base to measure dose-dependent inhibition of H3K27me3 mark and cell viability respectively. Readout of DMSO wells were used to normalize the data. Resulting curves were fitted using Activity base software Model 205 (IDBS Ltd, Surrey, UK). The data was checked for quality, validated and integrated in excel format using SARview (IDBS Ltd, Surrey, UK).
(In general: In Alpha technology, singlet oxygen from a donor bead excites a nearby acceptor bead.)

The target in the next test is Y641N EZH2 (Homo sapiens, UniProt Q15910, Y641N). In words: Assay for Y641N EZH2 (as the EZH2 assay, H3K27Me2 oligonucleosomes as substrate). The test is classed as biochemical. As to conditions: Y641N EZH2 mutant, reconstituted H3K27Me2 oligonucleosomes as substrate. As to the method:
as §1, §2
Assay for Y641N EZH2 was performed as above using reconstituted H3K27Me2 oligonucleosomes as substrate.

Chain of Y641N EZH2 (Q15910 whole entry Y641N): as the sequence (Q15910 whole entry) above, with Y641N counted along it
Chain of Y641N EZH2 (O75530 whole entry partner): as the sequence (O75530 whole entry partner) above
Chain of Y641N EZH2 (Q15022 whole entry partner): as the sequence (Q15022 whole entry partner) above

Regarding `COc1ccc2c(C(=O)NCc3c(C)cc(C)[nH]c3=O)c(C)c(C(C)C3CCN(CC(C)(C)O)CC3)n2n1` (stereo not drawn) [Compound 127, N-((4,6-dimethyl-2-oxo-1,2-dihydropyridin-3-yl)methyl)-7-(1-(1-(2-hydroxy-2-methylpropyl)piperidin-4-yl)ethyl)-2-methoxy-6-methylpyrrolo[1,2-b]pyridazine-5-carboxamide], at EZH2, the IC50 was less than 100 nM. Moreover, the concentration giving a half-maximal response (EC50) in test [1] was 2000 to 10000 nM.
As to `COc1cc(C)[nH]c(=O)c1CNC(=O)c1c(C)c(C(C)C2CCN(CC(F)F)CC2)n2ncccc12` (stereo not drawn) [Compound 145, 7-(1-(1-(2,2-difluoroethyl)piperidin-4-yl)ethyl)-N-((4-methoxy-6-methyl-2-oxo-1,2-dihydropyridin-3-yl)methyl)-6-methylpyrrolo[1,2-b]pyridazine-5-carboxamide], the half-maximal inhibitory concentration (IC50) against EZH2 was less than 100 nM. For the same molecule, the EC50 in test [1] was less than 400 nM.
For the molecule `CCS(=O)(=O)N1CCC(C(C)c2c(C)c(C(=O)NCc3c(OC)cc(C)[nH]c3=O)n3ccncc23)CC1` (racemic) [Compound 117, (±)-8-(1-(1-(ethylsulfonyl)piperidin-4-yl)ethyl)-N-((4-methoxy-6-methyl-2-oxo-1,2-dihydropyridin-3-yl)methyl)-7-methylpyrrolo[1,2-a]pyrazine-6-carboxamide], the IC50 at EZH2 and on Y641N EZH2 was less than 100 nM in each case.
With `Cc1cc(C)c(CNC(=O)c2c(C)c(-c3c(C)noc3C)n3ncccc23)c(=O)[nH]1` [Compound 118, N-((4,6-dimethyl-2-oxo-1,2-dihydropyridin-3-yl)methyl)-7-(3,5-dimethylisoxazol-4-yl)-6-methylpyrrolo[1,2-b]pyridazine-5-carboxamide], the IC50 on EZH2 and against Y641N EZH2 was less than 100 nM throughout.
For `COc1cc(C)[nH]c(=O)c1CNC(=O)c1c(C)c(C(C)N(C)C(C)=O)n2ncccc12` (racemic) [Compound 104, (±)-N-((4-methoxy-6-methyl-2-oxo-1,2-dihydropyridin-3-yl)methyl)-6-methyl-7-(1-(N-methylacetamido)ethyl)pyrrolo[1,2-b]pyridazine-5-carboxamide], the results for the IC50 at EZH2 and at Y641N EZH2 were less than 100 nM and 100 to 1000 nM, respectively.
The like results for `COc1cc(C)[nH]c(=O)c1CNC(=O)c1c(C)c(-c2ccnn2C)n2ncccc12` [Compound 109, N-((4-methoxy-6-methyl-2-oxo-1,2-dihydropyridin-3-yl)methyl)-6-methyl-7-(1-methyl-1H-pyrazol-5-yl)pyrrolo[1,2-b]pyridazine-5-carboxamide] were, in that order, 100 to 1000 nM and 100 to 1000 nM.
As to `Cc1cc(C)c(CNC(=O)c2c(C)c(C(=O)N3CCOCC3)n3ncccc23)c(=O)[nH]1` [Compound 125, N-((4,6-dimethyl-2-oxo-1,2-dihydropyridin-3-yl)methyl)-6-methyl-7-(morpholine-4-carbonyl)pyrrolo[1,2-b]pyridazine-5-carboxamide], the IC50 against EZH2 was in the range of 100 to 1000 nM.
As for `Cc1cc(C)c(CNC(=O)c2c(C)c(C(C)C3CCN(C)CC3)n3ncccc23)c(=O)[nH]1` (racemic) [Compound 124, (±)-N-((4,6-dimethyl-2-oxo-1,2-dihydropyridin-3-yl)methyl)-6-methyl-7-(1-(1-methylpiperidin-4-yl)ethyl)pyrrolo[1,2-b]pyridazine-5-carboxamide], the IC50 was less than 100 nM at EZH2 and 100 to 1000 nM against Y641N EZH2.
Take `COc1cc(C)[nH]c(=O)c1CNC(=O)c1c(C)c(-c2c(C)cnn2C)n2ncccc12` [Compound 120, 7-(1,4-dimethyl-1H-pyrazol-5-yl)-N-((4-methoxy-6-methyl-2-oxo-1,2-dihydropyridin-3-yl)methyl)-6-methylpyrrolo[1,2-b]pyridazine-5-carboxamide]: the 50% inhibitory concentration (IC50) against EZH2 and against Y641N EZH2 was 100 to 1000 nM throughout.
On to `COc1cc(C)[nH]c(=O)c1CNC(=O)c1c(C)c(C(C)c2cccn(C)c2=O)n2ncccc12` (racemic) [Compound 111, (±)-N-((4-methoxy-6-methyl-2-oxo-1,2-dihydropyridin-3-yl)methyl)-6-methyl-7-(1-(1-methyl-2-oxo-1,2-dihydropyridin-3-yl)ethyl)pyrrolo[1,2-b]pyridazine-5-carboxamide], for which, on EZH2, the “EZH2 IC50” value is reported as “*(0.25 μM)”. At Y641N EZH2, this molecule yielded a half-inhibitory concentration (IC50) of 1000 to 10000 nM.
In the case of `CCN(C)C(C)c1c(C)c(C(=O)NCc2c(OC)cc(C)[nH]c2=O)c2cccnn12` (stereo not drawn) [Compound 131, 7-(1-(ethyl(methyl)amino)ethyl)-N-((4-methoxy-6-methyl-2-oxo-1,2-dihydropyridin-3-yl)methyl)-6-methylpyrrolo[1,2-b]pyridazine-5-carboxamide], the IC50 against EZH2 was in the range of 100 to 1000 nM.
For the molecule `CCS(=O)(=O)N1CCC(C(C)c2c(C)c(C(=O)NCc3c(OC)cc(C)[nH]c3=O)c3cnccn23)CC1` (racemic) [Compound 119, (±)-6-(1-(1-(ethylsulfonyl)piperidin-4-yl)ethyl)-N-((4-methoxy-6-methyl-2-oxo-1,2-dihydropyridin-3-yl)methyl)-7-methylpyrrolo[1,2-a]pyrazine-8-carboxamide], the concentration for half-maximal inhibition (IC50) against EZH2 and against Y641N EZH2 was less than 100 nM each time.
As to `COc1cc(C)[nH]c(=O)c1CNC(=O)c1c(C)c(C(C)=O)n2ncccc12` [Compound 100, 7-acetyl-N-((4-methoxy-6-methyl-2-oxo-1,2-dihydropyridin-3-yl)methyl)-6-methylpyrrolo[1,2-b]pyridazine-5-carboxamide], the 50% inhibitory concentration (IC50) is 1000 to 10000 nM against EZH2 and greater than 10000 nM against Y641N EZH2.
For the molecule `CCCc1cc(C)[nH]c(=O)c1CNC(=O)c1c(C)c(-c2c(C)noc2C)n2ncccc12` [Compound 123, 7-(3,5-dimethylisoxazol-4-yl)-6-methyl-N-((6-methyl-2-oxo-4-propyl-1,2-dihydropyridin-3-yl)methyl)pyrrolo[1,2-b]pyridazine-5-carboxamide], the half-inhibitory concentration (IC50) against EZH2 was less than 100 nM. Further, the “Y641N EZH2 IC50” value on Y641N EZH2 is recorded as “*(0.5 μM)”.
As to `Cc1cc(C)c(CNC(=O)c2c(C)c(C(=O)N3CCN(S(C)(=O)=O)CC3)n3ncccc23)c(=O)[nH]1` [Compound 126, N-((4,6-dimethyl-2-oxo-1,2-dihydropyridin-3-yl)methyl)-6-methyl-7-(4-(methylsulfonyl)piperazine-1-carbonyl)pyrrolo[1,2-b]pyridazine-5-carboxamide], the half-inhibitory concentration (IC50) against EZH2 is 1000 to 10000 nM.
